In ChEMBL document CHEMBL4706663, “Large-scale isolation and antitumor mechanism evaluation of compounds from the traditional Chinese medicine Cordyceps Militaris” (Eur J Med Chem, 2021):

Legend:
A549 = assay: Antiproliferative activity against human A549 cells assessed as inhibition of cell growth at 12.5 ug/ml measured after 48 hrs by real-time cell analysis relative to control; type: functional; conditions: read-out: GI
HepG2 = assay: Antiproliferative activity against human HepG2 cells assessed as inhibition of cell growth at 12.5 ug/ml measured after 48 hrs by real-time cell analysis relative to control; type: functional; conditions: read-out: GI
Mus musculus [1] = assay: Anti-insomnia activity pentobarbital-induced mouse model of insomnia assessed as number of forelimb lifts at 32 mg/kg, ig administered daily for 15 days followed by pentobarbital addition at 1 hr post last dose (reference value: 9.2 +/- 4.31); type: functional; conditions: time 15 day
Mus musculus [2] = assay: Anti-insomnia activity pentobarbital-induced mouse model of insomnia assessed as number of forelimb lifts at 16 mg/kg, ig administered daily for 15 days followed by pentobarbital addition at 1 hr post last dose (reference value: 9.2 +/- 4.31); type: functional; conditions: time 15 day
Mus musculus [3] = assay: Anti-insomnia activity pentobarbital-induced mouse model of insomnia assessed as number of forelimb lifts at 8 mg/kg, ig administered daily for 15 days followed by pentobarbital addition at 1 hr post last dose (reference value: 9.2 +/- 4.31); type: functional; conditions: time 15 day
Mus musculus [4] = assay: Anti-insomnia activity pentobarbital-induced mouse model of insomnia assessed as time of sleep latency at 32 mg/kg, ig administered daily for 15 days followed by pentobarbital addition at 1 hr post last dose (reference value: 8.1 +/- 6.06 min); type: functional; conditions: time 15 day
Mus musculus [5] = assay: Anti-insomnia activity pentobarbital-induced mouse model of insomnia assessed as time of sleep latency at 16 mg/kg, ig administered daily for 15 days followed by pentobarbital addition at 1 hr post last dose (reference value: 8.1 +/- 6.06 min); type: functional; conditions: time 15 day
Mus musculus [6] = assay: Anti-insomnia activity pentobarbital-induced mouse model of insomnia assessed as time of sleep latency at 8 mg/kg, ig administered daily for 15 days followed by pentobarbital addition at 1 hr post last dose (reference value: 8.1 +/- 6.06 min); type: functional; conditions: time 15 day
Mus musculus [7] = assay: Anti-insomnia activity pentobarbital-induced mouse model of insomnia assessed as time of sleep duration at 32 mg/kg, ig administered daily for 15 days followed by pentobarbital addition at 1 hr post last dose (reference value: 17.1 +/- 5.15 min); type: functional; conditions: time 15 day
Mus musculus [8] = assay: Anti-insomnia activity pentobarbital-induced mouse model of insomnia assessed as time of sleep duration at 16 mg/kg, ig administered daily for 15 days followed by pentobarbital addition at 1 hr post last dose (reference value: 17.1 +/- 5.15 min); type: functional; conditions: time 15 day
Mus musculus [9] = assay: Anti-insomnia activity pentobarbital-induced mouse model of insomnia assessed as time of sleep duration at 8 mg/kg, ig administered daily for 15 days followed by pentobarbital addition at 1 hr post last dose (reference value: 17.1 +/- 5.15 min); type: functional; conditions: time 15 day
Mus musculus [10] = assay: Anti-insomnia activity pentobarbital-induced mouse model of insomnia assessed as sleep rate at 32 mg/kg, ig administered daily for 15 days followed by pentobarbital addition at 1 hr post last dose relative to control; type: functional; conditions: time 15 day
Mus musculus [11] = assay: Anti-insomnia activity pentobarbital-induced mouse model of insomnia assessed as sleep rate at 16 mg/kg, ig administered daily for 15 days followed by pentobarbital addition at 1 hr post last dose relative to control; type: functional; conditions: time 15 day
Mus musculus [12] = assay: Anti-insomnia activity pentobarbital-induced mouse model of insomnia assessed as sleep rate at 8 mg/kg, ig administered daily for 15 days followed by pentobarbital addition at 1 hr post last dose relative to control; type: functional; conditions: time 15 day
Mus musculus [13] = assay: Anti-insomnia activity pentobarbital-induced ig dosed mouse model of insomnia assessed as reduction in time before sleep administered daily for 15 days followed by pentobarbital addition at 1 hr post last dose; type: functional, organism-based; conditions: dose 8-32 mg/kg, time 15.0 day
Mus musculus [14] = assay: Anti-insomnia activity pentobarbital-induced ig dosed mouse model of insomnia assessed as increase in sleep time administered daily for 15 days followed by pentobarbital addition at 1 hr post last dose; type: functional, organism-based; conditions: dose 8-32 mg/kg, time 15.0 day
[15] = Antitumor activity against human Lewis lung cancer cells xenografted in BALB/c mouse assessed as tumor growth inhibition at 20 mg/kg, ig administered every day for 10 days relative to control; conditions: Lewis lung carcinoma, po, 240 h, read-out: TGI
[16] = Toxicity in human Lewis lung cancer cells xenografted BALB/c mouse assessed as survival rate at 20 mg/kg, ig administered every day for 10 days (reference value: 100%); conditions: in vivo, po
[17] = Antitumor activity against human H22 cells xenografted in KM mouse assessed as tumor growth inhibition at 20 mg/kg, ig administered every day for 10 days relative to control; conditions: H22, po, 240 h, read-out: TGI
[18] = Toxicity in human H22 cells xenografted KM mouse assessed as survival rate at 20 mg/kg, ig administered every day for 10 days relative to control; conditions: in vivo, po
Mus musculus [19] = assay: Anti-insomnia activity pentobarbital-induced mouse model of insomnia assessed as number of forelimb lifts at 0.029 mg/kg, ig administered daily for 15 days followed by pentobarbital addition at 1 hr post last dose (reference value: 9.2 +/- 4.31); type: functional; conditions: time 15 day
Mus musculus [20] = assay: Anti-insomnia activity pentobarbital-induced mouse model of insomnia assessed as time of sleep latency at 0.029 mg/kg, ig administered daily for 15 days followed by pentobarbital addition at 1 hr post last dose (reference value: 8.1 +/- 6.06 min); type: functional; conditions: time 15 day
Mus musculus [21] = assay: Anti-insomnia activity pentobarbital-induced mouse model of insomnia assessed as time of sleep duration at 0.029 mg/kg, ig administered daily for 15 days followed by pentobarbital addition at 1 hr post last dose (reference value: 17.1 +/- 5.15 min); type: functional; conditions: time 15 day
Mus musculus [22] = assay: Anti-insomnia activity pentobarbital-induced mouse model of insomnia assessed as sleep rate at 0.029 mg/kg, ig administered daily for 15 days followed by pentobarbital addition at 1 hr post last dose relative to control; type: functional; conditions: time 15 day

With CC(C)[C@@H](C)/C=C/[C@@H](C)[C@H]1CC[C@H]2C3=CC(=O)[C@@]4(O)C[C@@H](O)CC[C@]4(C)[C@H]3CC[C@]12C the inhibition of growth at 12.5 µg/mL (A549) was 100% and the inhibition of growth at 12.5 µg/mL (HepG2) was 100%.

Compound OCCNc1ncnc2c1ncn2[C@@H]1O[C@H](CO)[C@@H](O)[C@H]1O has an Activity (Mus musculus [1]) of 3.3, an Activity (Mus musculus [2]) of 3.9 and an Activity (Mus musculus [3]) of 9. The Time (Mus musculus [4]) was 5.1 min, the Time (Mus musculus [5]) was 5.2 min and the Time (Mus musculus [6]) was 5.7 min. It also gave a Time (Mus musculus [7]) of 34.5 min, a Time (Mus musculus [8]) of 26.2 min and a Time (Mus musculus [9]) of 24.2 min. It also gave an Activity (Mus musculus [10]) of 60%, an Activity (Mus musculus [11]) of 40% and an Activity (Mus musculus [12]) of 20%. The Activity (Mus musculus [13]) was “Dose-dependent effect” and the Activity (Mus musculus [14]) was “Dose-dependent effect”.

With C/C(=C\[C@@H](C)[C@H]1CC[C@@H]2[C@]1(C)CC[C@H]1[C@]23C=C[C@]2(C[C@@H](O)CC[C@]12C)OO3)[C@H](C)C(C)C the inhibition of growth at 12.5 µg/mL (A549) was 100% and the inhibition of growth at 12.5 µg/mL (HepG2) was 100%.

With O=P1(N(CCCl)CCCl)NCCCO1 (stereo unspecified) [CYCLOPHOSPHAMIDE ANHYDROUS] the inhibition in vivo at 20 mg/kg [15] was 46.3%, the survival at 240 h [16] was 100% and the inhibition in vivo at 20 mg/kg [17] was 52.9%. The survival at 240 h [18] was 100%.

Compound Clc1ccc2c(c1)C(c1ccccc1)=NCc1nncn1-2 [ESTAZOLAM] has an Activity (Mus musculus [19]) of 4.1, a Time (Mus musculus [20]) of 5.9 min and a Time (Mus musculus [21]) of 26 min. It also gave an Activity (Mus musculus [22]) of 60%.
